Values of other authors in patent US7659300B2, “Monocyclic anilide spirolactam CGRP receptor antagonists” (Merck Sharp & Dohme Corp., priority 2004, dated 2010).
No end group written: not given here.

Tests used:
middle meningeal artery = conditions: rats, electrical stimulation of the dura mater, prior administration (Williamson et al. 1997)
facial blood flow [1] = conditions: rat, trigeminal ganglion stimulation (Escott et al. 1995)
facial blood flow [2] = conditions: marmoset, electrical stimulation of the trigeminal ganglion (Doods et al. 2000)
migraine = conditions: clinical studies, intravenously administered (Olesen et al. 2004)

Compound	increase of the diameter of the middle meningeal artery (middle meningeal artery)	increase of facial blood flow (facial blood flow [1])	increase in facial blood flow (facial blood flow [2])	acute treatment of migraine (migraine)
CGRP(8-37): a peptide CGRP antagonist; fragment of CGRP that lacks seven N-terminal amino acid residues (VTHRLAGLLSRSGGVVKNNFVPTNVGSKAF; ends and bridges not checked; UniProt P06881 90-119, looked up, fragment)	blocked	inhibited	–	–
NCCCC[C@H](NC(=O)[C@@H](Cc1cc(Br)c(O)c(Br)c1)NC(=O)N1CCC(N2Cc3ccccc3NC2=O)CC1)C(=O)N1CCN(c2ccncc2)CC1 [BIBN4096BS]	–	–	blocked	safe and effective acute treatment for migraine
